# Laboratory results published in patent publication US9682995B2, “Amino-substituted isothiazoles” (BAYER PHARMA AKTIENGESELLSCHAFT, priority 2013, dated 2017).
# Columns and labels:
# Experiment in all cases: Kinase Profiling (KINOMEscan)
# Type in all cases: binding
# [1] = biological target: 456 kinases (of these 395 non-mutant kinases) (Homo sapiens, UniProt Q02763); conditions: TIE2; 10 μM
# [2] = biological target: 456 kinases (of these 395 non-mutant kinases) (Homo sapiens, UniProt P17948); conditions: FLT1; 10 μM
# Sequence of 456 kinases (of these 395 non-mutant kinases) (Homo sapiens, UniProt P17948) (P17948 27-1338 limits assumed, change not shown): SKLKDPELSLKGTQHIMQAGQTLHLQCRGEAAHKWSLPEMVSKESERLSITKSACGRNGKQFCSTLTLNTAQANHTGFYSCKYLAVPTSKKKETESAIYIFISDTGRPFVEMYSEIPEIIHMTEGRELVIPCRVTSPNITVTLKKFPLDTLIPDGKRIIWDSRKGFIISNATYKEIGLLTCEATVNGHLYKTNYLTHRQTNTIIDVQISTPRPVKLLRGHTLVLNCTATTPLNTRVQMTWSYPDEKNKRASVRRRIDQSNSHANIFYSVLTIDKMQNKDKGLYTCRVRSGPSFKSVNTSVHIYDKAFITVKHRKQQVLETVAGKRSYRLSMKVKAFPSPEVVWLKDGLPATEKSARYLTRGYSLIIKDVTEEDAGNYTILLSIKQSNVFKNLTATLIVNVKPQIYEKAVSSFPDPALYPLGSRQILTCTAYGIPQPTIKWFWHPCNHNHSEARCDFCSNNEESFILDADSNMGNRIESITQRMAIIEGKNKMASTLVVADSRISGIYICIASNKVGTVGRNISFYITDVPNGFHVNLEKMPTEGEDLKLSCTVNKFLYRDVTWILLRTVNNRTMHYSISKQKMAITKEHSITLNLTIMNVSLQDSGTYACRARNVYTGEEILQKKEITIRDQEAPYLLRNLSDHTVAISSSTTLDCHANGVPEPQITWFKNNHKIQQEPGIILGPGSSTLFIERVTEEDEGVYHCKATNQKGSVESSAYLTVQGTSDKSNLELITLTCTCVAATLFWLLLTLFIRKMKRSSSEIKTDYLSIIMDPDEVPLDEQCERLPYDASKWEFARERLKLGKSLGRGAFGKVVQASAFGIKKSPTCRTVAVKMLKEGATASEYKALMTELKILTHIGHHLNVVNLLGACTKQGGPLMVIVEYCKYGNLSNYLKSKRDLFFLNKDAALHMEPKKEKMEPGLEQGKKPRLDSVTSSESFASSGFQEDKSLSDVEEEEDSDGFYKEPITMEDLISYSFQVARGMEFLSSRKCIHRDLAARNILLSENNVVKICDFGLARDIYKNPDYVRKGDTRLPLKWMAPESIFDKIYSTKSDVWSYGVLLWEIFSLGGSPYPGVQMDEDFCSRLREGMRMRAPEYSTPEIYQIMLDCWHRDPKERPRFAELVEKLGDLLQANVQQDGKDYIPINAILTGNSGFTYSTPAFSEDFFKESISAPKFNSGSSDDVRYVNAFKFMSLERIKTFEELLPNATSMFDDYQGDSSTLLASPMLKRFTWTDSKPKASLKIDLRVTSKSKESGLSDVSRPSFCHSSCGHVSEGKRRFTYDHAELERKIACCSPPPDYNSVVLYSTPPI
# [3] = biological target: 456 kinases (of these 395 non-mutant kinases) (Homo sapiens, UniProt Q9H4B4); conditions: PLK3; 10 μM
# [4] = biological target: 456 kinases (of these 395 non-mutant kinases) (Homo sapiens, UniProt Q15835); conditions: GRK1; 10 μM
# [5] = biological target: 456 kinases (of these 395 non-mutant kinases) (Homo sapiens, UniProt P06239); conditions: LCK; 10 μM
# Sequence of 456 kinases (of these 395 non-mutant kinases) (Homo sapiens, UniProt P06239) (P06239 2-509 limits assumed, change not shown): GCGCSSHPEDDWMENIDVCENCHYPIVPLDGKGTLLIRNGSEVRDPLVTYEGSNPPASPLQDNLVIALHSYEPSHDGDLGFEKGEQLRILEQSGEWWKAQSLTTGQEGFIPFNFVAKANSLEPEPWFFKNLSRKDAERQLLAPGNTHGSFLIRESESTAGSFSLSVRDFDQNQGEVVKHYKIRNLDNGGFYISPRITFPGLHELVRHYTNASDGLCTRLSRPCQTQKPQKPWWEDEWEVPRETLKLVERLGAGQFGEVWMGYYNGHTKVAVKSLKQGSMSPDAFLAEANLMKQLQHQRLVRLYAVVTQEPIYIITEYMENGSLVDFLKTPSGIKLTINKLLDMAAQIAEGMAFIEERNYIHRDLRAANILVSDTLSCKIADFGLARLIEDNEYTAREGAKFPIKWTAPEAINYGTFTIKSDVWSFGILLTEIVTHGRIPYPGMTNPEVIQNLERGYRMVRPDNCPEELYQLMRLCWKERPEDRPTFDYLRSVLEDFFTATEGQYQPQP
# [6] = biological target: 456 kinases (of these 395 non-mutant kinases) (Homo sapiens, UniProt Q6XUX3); conditions: RIPK5; 10 μM
# [7] = biological target: 456 kinases (of these 395 non-mutant kinases) (Homo sapiens, UniProt Q96PY6); conditions: NEK1; 10 μM
# [8] = biological target: 456 kinases (of these 395 non-mutant kinases) (Homo sapiens, UniProt P22607); conditions: FGFR3; 10 μM
# [9] = biological target: 456 kinases (of these 395 non-mutant kinases) (Homo sapiens, UniProt P19525); conditions: PRKR; 10 μM
# [10] = biological target: 456 kinases (of these 395 non-mutant kinases) (Homo sapiens, UniProt Q9NYL2); conditions: ZAK; 10 μM
# [11] = biological target: 456 kinases (of these 395 non-mutant kinases) (Homo sapiens, UniProt Q9UQM7); conditions: CAMK2A; 10 μM
# [12] = biological target: 456 kinases (of these 395 non-mutant kinases) (Homo sapiens, UniProt Q9BQI3); conditions: EIF2AK1; 10 μM
# [13] = biological target: 456 kinases (of these 395 non-mutant kinases) (Homo sapiens, UniProt Q8NI60); conditions: ADCK3; 10 μM
# Sequence of 456 kinases (of these 395 non-mutant kinases) (Homo sapiens, UniProt Q8NI60) (Q8NI60 163-647 limits assumed, change not shown): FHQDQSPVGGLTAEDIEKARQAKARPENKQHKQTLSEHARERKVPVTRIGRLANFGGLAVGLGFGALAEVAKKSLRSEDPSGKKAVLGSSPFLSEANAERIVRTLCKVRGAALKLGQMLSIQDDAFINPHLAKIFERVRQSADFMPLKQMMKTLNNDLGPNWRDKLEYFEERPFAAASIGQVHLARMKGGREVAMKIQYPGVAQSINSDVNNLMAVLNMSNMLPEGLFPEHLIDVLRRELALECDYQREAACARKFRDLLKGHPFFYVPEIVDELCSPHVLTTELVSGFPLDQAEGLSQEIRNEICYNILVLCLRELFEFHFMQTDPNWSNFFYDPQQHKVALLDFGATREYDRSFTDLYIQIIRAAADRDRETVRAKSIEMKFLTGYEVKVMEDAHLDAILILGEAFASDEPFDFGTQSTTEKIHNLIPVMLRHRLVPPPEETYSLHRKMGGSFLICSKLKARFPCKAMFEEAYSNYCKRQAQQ
# [14] = biological target: 456 kinases (of these 395 non-mutant kinases) (Homo sapiens, UniProt Q9H2X6); conditions: HIPK2; 10 μM
# [15] = biological target: 456 kinases (of these 395 non-mutant kinases) (Homo sapiens, UniProt P35590); conditions: TIE1; 10 μM
# [16] = biological target: 456 kinases (of these 395 non-mutant kinases) (Homo sapiens, UniProt P04626); conditions: ERBB2; 10 μM
# Sequence of 456 kinases (of these 395 non-mutant kinases) (Homo sapiens, UniProt P04626) (P04626 23-1255 limits assumed, change not shown): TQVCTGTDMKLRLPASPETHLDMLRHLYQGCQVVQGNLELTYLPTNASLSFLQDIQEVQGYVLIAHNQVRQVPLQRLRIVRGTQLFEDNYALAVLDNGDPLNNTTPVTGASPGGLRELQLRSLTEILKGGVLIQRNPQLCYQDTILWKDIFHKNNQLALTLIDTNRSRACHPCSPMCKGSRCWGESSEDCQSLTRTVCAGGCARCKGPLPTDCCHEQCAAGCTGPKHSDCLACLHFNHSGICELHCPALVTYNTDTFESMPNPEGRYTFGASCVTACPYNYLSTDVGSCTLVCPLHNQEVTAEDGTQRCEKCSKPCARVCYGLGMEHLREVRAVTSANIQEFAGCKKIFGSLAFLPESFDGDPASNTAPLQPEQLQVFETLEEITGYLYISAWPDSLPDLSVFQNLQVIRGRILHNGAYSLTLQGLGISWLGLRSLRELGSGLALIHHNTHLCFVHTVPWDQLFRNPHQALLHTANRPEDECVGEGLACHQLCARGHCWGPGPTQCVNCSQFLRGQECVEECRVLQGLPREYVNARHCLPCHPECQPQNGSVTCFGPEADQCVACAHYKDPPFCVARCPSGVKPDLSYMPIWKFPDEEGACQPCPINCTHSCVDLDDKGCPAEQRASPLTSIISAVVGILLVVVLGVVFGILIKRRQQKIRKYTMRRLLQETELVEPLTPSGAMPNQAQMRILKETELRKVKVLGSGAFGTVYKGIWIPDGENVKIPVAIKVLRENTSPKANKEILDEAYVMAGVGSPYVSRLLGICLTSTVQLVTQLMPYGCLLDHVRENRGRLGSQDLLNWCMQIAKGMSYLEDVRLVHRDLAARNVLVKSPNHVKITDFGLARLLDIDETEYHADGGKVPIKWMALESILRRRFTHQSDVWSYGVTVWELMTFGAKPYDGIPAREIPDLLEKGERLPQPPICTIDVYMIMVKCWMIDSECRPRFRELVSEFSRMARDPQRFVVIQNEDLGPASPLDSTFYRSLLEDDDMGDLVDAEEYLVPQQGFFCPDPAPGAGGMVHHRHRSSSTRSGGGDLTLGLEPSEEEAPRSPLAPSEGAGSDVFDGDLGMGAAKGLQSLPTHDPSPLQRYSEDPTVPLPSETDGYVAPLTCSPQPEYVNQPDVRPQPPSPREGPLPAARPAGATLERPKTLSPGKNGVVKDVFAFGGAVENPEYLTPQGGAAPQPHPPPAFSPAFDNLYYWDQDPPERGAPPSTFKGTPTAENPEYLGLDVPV
# [17] = biological target: 456 kinases (of these 395 non-mutant kinases) (Homo sapiens, UniProt P09769); conditions: FGR; 10 μM
# Sequence of 456 kinases (of these 395 non-mutant kinases) (Homo sapiens, UniProt P09769) (P09769 2-529 limits assumed, change not shown): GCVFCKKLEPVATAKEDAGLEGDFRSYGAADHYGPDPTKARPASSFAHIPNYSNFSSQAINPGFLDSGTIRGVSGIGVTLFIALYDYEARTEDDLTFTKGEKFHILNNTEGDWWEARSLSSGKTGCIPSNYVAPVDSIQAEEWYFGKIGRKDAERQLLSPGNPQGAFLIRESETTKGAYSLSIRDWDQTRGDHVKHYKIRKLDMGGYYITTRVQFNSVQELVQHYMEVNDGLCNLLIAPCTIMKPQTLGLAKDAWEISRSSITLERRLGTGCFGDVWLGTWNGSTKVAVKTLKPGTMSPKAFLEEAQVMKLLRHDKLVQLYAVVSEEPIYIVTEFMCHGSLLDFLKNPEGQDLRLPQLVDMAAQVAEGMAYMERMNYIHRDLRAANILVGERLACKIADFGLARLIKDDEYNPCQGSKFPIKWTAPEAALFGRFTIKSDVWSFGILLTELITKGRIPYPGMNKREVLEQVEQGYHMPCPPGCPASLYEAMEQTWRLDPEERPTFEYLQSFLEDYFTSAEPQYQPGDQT
# [18] = biological target: 456 kinases (of these 395 non-mutant kinases) (Homo sapiens, UniProt Q6PHR2); conditions: ULK3; 10 μM
# [19] = biological target: 456 kinases (of these 395 non-mutant kinases) (Homo sapiens, UniProt O15530); conditions: PDPK1; 10 μM
# [20] = biological target: 456 kinases (of these 395 non-mutant kinases) (Homo sapiens, UniProt P16591); conditions: FER; 10 μM
# [21] = biological target: 456 kinases (of these 395 non-mutant kinases) (Homo sapiens, UniProt P41240); conditions: CSK; 10 μM
# [22] = biological target: 456 kinases (of these 395 non-mutant kinases) (Homo sapiens, UniProt Q14164); conditions: IKK-epsilon; 10 μM
# [23] = biological target: 456 kinases (of these 395 non-mutant kinases) (Homo sapiens, UniProt P54756); conditions: EPHA5; 10 μM
# [24] = biological target: 456 kinases (of these 395 non-mutant kinases) (Homo sapiens, UniProt Q9BVS4); conditions: RIOK2; 10 μM
# [25] = biological target: 456 kinases (of these 395 non-mutant kinases) (Homo sapiens, UniProt Q9H093); conditions: SNARK; 10 μM
# [26] = biological target: 456 kinases (of these 395 non-mutant kinases) (Homo sapiens, UniProt Q13557); conditions: CAMK2D; 10 μM
# Sequence of 456 kinases (of these 395 non-mutant kinases) (Homo sapiens, UniProt Q13557) (Q13557 2-499 limits assumed, change not shown): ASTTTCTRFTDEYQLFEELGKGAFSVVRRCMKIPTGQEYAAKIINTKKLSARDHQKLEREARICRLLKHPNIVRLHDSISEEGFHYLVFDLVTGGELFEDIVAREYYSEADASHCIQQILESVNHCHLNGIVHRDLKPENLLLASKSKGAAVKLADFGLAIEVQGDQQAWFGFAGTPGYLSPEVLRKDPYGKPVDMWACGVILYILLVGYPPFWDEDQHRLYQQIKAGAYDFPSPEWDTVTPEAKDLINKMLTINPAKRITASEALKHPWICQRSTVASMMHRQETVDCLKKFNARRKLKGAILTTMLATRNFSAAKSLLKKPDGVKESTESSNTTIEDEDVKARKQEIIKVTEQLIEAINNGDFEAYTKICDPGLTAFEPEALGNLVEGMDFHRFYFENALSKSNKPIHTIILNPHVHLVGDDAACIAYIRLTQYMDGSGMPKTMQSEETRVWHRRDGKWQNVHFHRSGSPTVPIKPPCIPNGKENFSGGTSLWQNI
# [27] = biological target: 456 kinases (of these 395 non-mutant kinases) (Homo sapiens, UniProt Q13705); conditions: ACVR2B; 10 μM
# Sequence of 456 kinases (of these 395 non-mutant kinases) (Homo sapiens, UniProt Q13705) (Q13705 19-512 limits assumed, change not shown): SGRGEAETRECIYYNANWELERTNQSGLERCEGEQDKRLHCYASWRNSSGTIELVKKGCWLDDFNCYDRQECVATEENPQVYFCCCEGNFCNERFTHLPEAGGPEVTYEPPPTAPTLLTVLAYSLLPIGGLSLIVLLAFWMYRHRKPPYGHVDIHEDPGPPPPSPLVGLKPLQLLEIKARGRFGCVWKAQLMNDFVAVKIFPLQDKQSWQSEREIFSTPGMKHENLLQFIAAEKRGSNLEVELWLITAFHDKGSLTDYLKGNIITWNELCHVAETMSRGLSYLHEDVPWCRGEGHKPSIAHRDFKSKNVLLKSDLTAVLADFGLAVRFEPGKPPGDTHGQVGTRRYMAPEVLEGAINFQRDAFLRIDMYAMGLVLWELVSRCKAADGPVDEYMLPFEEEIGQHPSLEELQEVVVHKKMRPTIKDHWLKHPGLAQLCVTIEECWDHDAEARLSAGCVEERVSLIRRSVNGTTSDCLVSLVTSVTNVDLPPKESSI
# [28] = biological target: 456 kinases (of these 395 non-mutant kinases) (Homo sapiens, UniProt Q8TDC3); conditions: BRSK1; 10 μM
# [29] = biological target: 456 kinases (of these 395 non-mutant kinases) (Homo sapiens, UniProt Q16584); conditions: MLK3; 10 μM
# [30] = biological target: 456 kinases (of these 395 non-mutant kinases) (Homo sapiens, UniProt Q9UKI8); conditions: TLK1; 10 μM
# [31] = biological target: 456 kinases (of these 395 non-mutant kinases) (Homo sapiens, UniProt P30291); conditions: WEE1; 10 μM
# [32] = biological target: 456 kinases (of these 395 non-mutant kinases) (Homo sapiens, UniProt P51957); conditions: NEK4; 10 μM
# [33] = biological target: 456 kinases (of these 395 non-mutant kinases) (Homo sapiens, UniProt Q9UPZ9); conditions: ICK; 10 μM
smiles,measurement,setting,value
"CCc1ccccc1NC(=O)c1c(C)nsc1Nc1cnc2cc(F)ccc2n1 [Example 20, N-(2-Ethylphenyl)-5-[(6-fluoroquinoxalin-2-yl)amino]-3-methyl-1,2-thiazole-4-carboxamide]",% Ctrl @ 10 μM,[1],100 % Ctrl
same,% Ctrl @ 10 μM,[2],74 % Ctrl
same,% Ctrl @ 10 μM,[3],92 % Ctrl
same,% Ctrl @ 10 μM,[4],100 % Ctrl
same,% Ctrl @ 10 μM,[5],94 % Ctrl
same,% Ctrl @ 10 μM,[6],100 % Ctrl
same,% Ctrl @ 10 μM,[7],100 % Ctrl
same,% Ctrl @ 10 μM,[8],85 % Ctrl
same,% Ctrl @ 10 μM,[9],100 % Ctrl
same,% Ctrl @ 10 μM,[10],78 % Ctrl
same,% Ctrl @ 10 μM,[11],88 % Ctrl
same,% Ctrl @ 10 μM,[12],100 % Ctrl
same,% Ctrl @ 10 μM,[13],64 % Ctrl
same,% Ctrl @ 10 μM,[14],100 % Ctrl
same,% Ctrl @ 10 μM,[15],100 % Ctrl
same,% Ctrl @ 10 μM,[16],77 % Ctrl
same,% Ctrl @ 10 μM,[17],80 % Ctrl
same,% Ctrl @ 10 μM,[18],100 % Ctrl
same,% Ctrl @ 10 μM,[19],86 % Ctrl
same,% Ctrl @ 10 μM,[20],100 % Ctrl
same,% Ctrl @ 10 μM,[21],100 % Ctrl
same,% Ctrl @ 10 μM,[22],100 % Ctrl
same,% Ctrl @ 10 μM,[23],99 % Ctrl
same,% Ctrl @ 10 μM,[24],77 % Ctrl
same,% Ctrl @ 10 μM,[25],100 % Ctrl
same,% Ctrl @ 10 μM,[26],89 % Ctrl
same,% Ctrl @ 10 μM,[27],91 % Ctrl
same,% Ctrl @ 10 μM,[28],90 % Ctrl
same,% Ctrl @ 10 μM,[29],90 % Ctrl
same,% Ctrl @ 10 μM,[30],84 % Ctrl
same,% Ctrl @ 10 μM,[31],100 % Ctrl
same,% Ctrl @ 10 μM,[32],99 % Ctrl
same,% Ctrl @ 10 μM,[33],100 % Ctrl
